{
  "source": "patent US20080063668A1",
  "about": "“Nitroimidazole and terconazole composition and method” (priority 2006, published 2008)",
  "origin": "cited, not measured here",
  "settings": "neutral pH; cited from earlier work",
  "note": "Structures can show the parent of a compound that is named as a salt.",
  "data": [
    {"smiles": "CC(C)N1CCN(c2ccc(OCC3COC(Cn4cncn4)(c4ccc(Cl)cc4Cl)O3)cc2)CC1", "note": "(stereo not shown) [Terconazole hydrochloride]", "values": [
      {"measurement": "solubility in water", "value": "about 0.007 percent by weight"}
    ]}
  ]
}
